Source: the NIST ThermoML archive (doi:10.1021/je800069z)
± gives the expanded uncertainty stated by the source.

Details: Ring tensiometer

| Compound | surface tension liquid-gas (293.15 K) | surface tension liquid-gas (303.15 K) | surface tension liquid-gas (313.15 K) | surface tension liquid-gas (323.15 K) | surface tension liquid-gas (333.15 K) | surface tension liquid-gas (343.15 K) | surface tension liquid-gas (353.15 K) |
| --- | --- | --- | --- | --- | --- | --- | --- |
| CCCCCn1cc[n+](C)c1.O=S(=O)([N-]S(=O)(=O)C(F)(F)F)C(F)(F)F | 32.9 ± 0.62 mN/m | 32.41 ± 0.61 mN/m | 31.83 ± 0.6 mN/m | 31.27 ± 0.59 mN/m | 30.77 ± 0.58 mN/m | 30.31 ± 0.58 mN/m |  |
| CCCn1cc[n+](C)c1.O=S(=O)([N-]S(=O)(=O)C(F)(F)F)C(F)(F)F | 34.87 ± 0.65 mN/m | 34.22 ± 0.64 mN/m | 33.73 ± 0.63 mN/m | 33.31 ± 0.62 mN/m | 32.79 ± 0.61 mN/m | 32.18 ± 0.6 mN/m |  |
| CCCCCC[n+]1ccn(C)c1.O=S(=O)([N-]S(=O)(=O)C(F)(F)F)C(F)(F)F | 32.31 ± 0.61 mN/m | 31.76 ± 0.6 mN/m | 31.2 ± 0.59 mN/m | 30.6 ± 0.58 mN/m | 30.16 ± 0.57 mN/m | 29.62 ± 0.56 mN/m |  |
| CCCC[n+]1ccn(C)c1.O=S(=O)([N-]S(=O)(=O)C(F)(F)F)C(F)(F)F | 33.6 ± 0.63 mN/m | 33.09 ± 0.62 mN/m | 32.5 ± 0.61 mN/m | 31.92 ± 0.6 mN/m | 31.35 ± 0.59 mN/m | 30.9 ± 0.58 mN/m |  |
| CCCCCCCCCCn1cc[n+](C)c1.O=S(=O)([N-]S(=O)(=O)C(F)(F)F)C(F)(F)F | 32.12 ± 0.6 mN/m | 31.34 ± 0.59 mN/m | 30.7 ± 0.58 mN/m | 30.1 ± 0.57 mN/m | 29.5 ± 0.56 mN/m | 28.68 ± 0.55 mN/m |  |
| CCCCCCCCn1cc[n+](C)c1.O=S(=O)([N-]S(=O)(=O)C(F)(F)F)C(F)(F)F | 31.93 ± 0.6 mN/m | 31.3 ± 0.59 mN/m | 30.57 ± 0.58 mN/m | 29.98 ± 0.57 mN/m | 29.4 ± 0.56 mN/m | 28.86 ± 0.55 mN/m |  |
| CCn1cc[n+](C)c1.O=S(=O)([N-]S(=O)(=O)C(F)(F)F)C(F)(F)F | 36.94 ± 0.68 mN/m | 36.43 ± 0.67 mN/m | 35.92 ± 0.66 mN/m | 35.51 ± 0.66 mN/m | 34.96 ± 0.65 mN/m | 34.57 ± 0.64 mN/m |  |
| CCCCCCCn1cc[n+](C)c1.O=S(=O)([N-]S(=O)(=O)C(F)(F)F)C(F)(F)F | 32 ± 0.6 mN/m | 31.36 ± 0.59 mN/m | 30.66 ± 0.58 mN/m | 30.02 ± 0.57 mN/m | 29.5 ± 0.56 mN/m | 28.95 ± 0.55 mN/m | 28.29 ± 0.54 mN/m |
